For one assay, the target named is DNMT1 (Homo sapiens, UniProt P26358). The assay is described as follows: DNMT1 biochemical activity, breaklight assay and/or SPA assay.
Assay [1] deals with erythroid progenitor cells (EPCs). Description: Fetal hemoglobin (HbF) ELISA in day 7 erythroid progenitor cells.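 On all read-outs here: for fetal hemoglobin induction normalized to vehicle-treated cells.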 The class given is cell-based, human. The conditions noted are these: HbF ELISA, day 7 EPCs, 5 days; for EC50: Homo sapiens, Erythroid progenitor cell, read-out: EPC ELISA (pEC50 category) (converted). Put shortly: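 Read-out was OD450 from an HRP/TMB sandwich ELISA on lysates, normalized to DMSO-only control wells. Thawed day 7 EPCs from human marrow CD34+ cells had been treated for 5 days at 37° C with Compound A, 22 concentrations […].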

Setting [2] is: binned activity in either the breaklight or the SPA assay.
[3] abbreviates: binned activity in either the breaklight or the SPA assay, read-out: DNMT1 BioChemical (pIC50 category) (converted).

Where “and” joins values, the source holds several entries; their conditions need not be identical. Equal entries are not always repeated. Structures can show the parent of a compound that is named as a salt. Where two headings read alike, the source gives them in different places.

Chain of DNMT1 (P26358 whole entry, looked up): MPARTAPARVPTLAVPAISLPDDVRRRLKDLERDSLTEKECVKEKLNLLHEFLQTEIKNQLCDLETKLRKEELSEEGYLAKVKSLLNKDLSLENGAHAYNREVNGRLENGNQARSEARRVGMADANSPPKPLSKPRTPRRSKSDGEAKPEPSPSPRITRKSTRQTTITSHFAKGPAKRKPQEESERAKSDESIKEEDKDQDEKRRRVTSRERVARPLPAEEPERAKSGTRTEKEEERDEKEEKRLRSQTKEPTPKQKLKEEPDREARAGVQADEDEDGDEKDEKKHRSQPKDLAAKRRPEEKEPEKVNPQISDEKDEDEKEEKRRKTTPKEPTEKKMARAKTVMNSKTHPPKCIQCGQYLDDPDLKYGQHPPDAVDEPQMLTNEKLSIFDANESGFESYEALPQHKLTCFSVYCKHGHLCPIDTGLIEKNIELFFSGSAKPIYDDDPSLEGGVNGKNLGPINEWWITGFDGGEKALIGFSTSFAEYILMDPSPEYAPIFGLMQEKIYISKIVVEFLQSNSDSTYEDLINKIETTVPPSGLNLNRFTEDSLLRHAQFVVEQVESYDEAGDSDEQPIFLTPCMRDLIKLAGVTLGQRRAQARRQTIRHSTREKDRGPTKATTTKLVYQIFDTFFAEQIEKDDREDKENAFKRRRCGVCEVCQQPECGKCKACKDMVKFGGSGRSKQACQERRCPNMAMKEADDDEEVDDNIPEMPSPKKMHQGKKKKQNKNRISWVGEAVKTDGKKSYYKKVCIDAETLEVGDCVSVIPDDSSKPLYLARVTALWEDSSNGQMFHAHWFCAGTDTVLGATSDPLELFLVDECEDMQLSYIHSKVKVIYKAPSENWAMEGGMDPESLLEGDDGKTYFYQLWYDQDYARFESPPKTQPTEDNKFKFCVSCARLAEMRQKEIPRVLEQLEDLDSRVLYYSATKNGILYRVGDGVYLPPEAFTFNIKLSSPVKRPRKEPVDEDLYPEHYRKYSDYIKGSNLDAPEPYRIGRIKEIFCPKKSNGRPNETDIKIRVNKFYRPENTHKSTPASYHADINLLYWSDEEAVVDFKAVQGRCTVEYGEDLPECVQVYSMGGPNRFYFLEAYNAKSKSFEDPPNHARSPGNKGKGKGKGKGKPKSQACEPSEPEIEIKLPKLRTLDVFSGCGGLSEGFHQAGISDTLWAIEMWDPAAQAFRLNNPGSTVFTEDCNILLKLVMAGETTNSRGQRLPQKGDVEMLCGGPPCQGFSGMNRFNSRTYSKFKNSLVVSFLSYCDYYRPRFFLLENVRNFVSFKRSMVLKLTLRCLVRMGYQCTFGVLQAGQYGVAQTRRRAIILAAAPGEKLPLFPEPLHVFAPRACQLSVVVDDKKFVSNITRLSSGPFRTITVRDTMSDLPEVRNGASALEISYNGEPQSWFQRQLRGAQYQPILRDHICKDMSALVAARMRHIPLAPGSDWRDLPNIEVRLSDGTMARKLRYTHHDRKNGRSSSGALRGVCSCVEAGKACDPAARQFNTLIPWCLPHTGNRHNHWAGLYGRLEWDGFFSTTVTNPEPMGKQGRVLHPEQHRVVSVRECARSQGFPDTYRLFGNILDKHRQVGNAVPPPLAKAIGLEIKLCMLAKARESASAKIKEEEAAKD

In the case of `CCc1c(C#N)c(SCc2ccc(N(C)S(C)(=O)=O)cc2)nc(N(C)CCN(CC)CC)c1C#N` [Example 579, N-(4-(((3,5-dicyano-6-((2-(diethylamino)ethyl)(methyl)amino)-4-ethylpyridin-2-yl)thio)methyl)phenyl)-N-methylmethanesulfonamide], the “DNMT1 BioChemical (pIC50 category)” value on DNMT1 (setting [2]) is “D (Category D: ≥6.5)”. Moreover, the EC50 in assay [1] was less than 316 nM.

For the compound `CCc1c(C#N)c(N[C@@H](C(N)=O)c2ccccc2)nc(N2CCCN(CCCN3CCCC3)CC2)c1C#N` [Example 163, (R)-2-((3,5-Dicyano-4-ethyl-6-(4-(3-(pyrrolidin-1-yl)propyl)-1,4-diazepan-1-yl)pyridin-2-yl)amino)-2-phenylacetamide], the IC50 at DNMT1 (setting [3]) was 1000 to 31600 nM. Moreover, in assay [1], the EC50 was more than 31600 nM.

In the case of `CCc1c(C#N)c(SC(C(N)=O)c2ccccc2)nc(N2CCC(C(N)=O)CC2)c1C#N` (stereo not drawn) [Example 217, 1-(6-((2-Amino-2-oxo-1-phenylethyl)thio)-3,5-dicyano-4-ethylpyridin-2-yl)piperidine-4-carboxamide], at DNMT1 (setting [3]), the IC50 is 316 to 1000 nM. Also, the EC50 in assay [1] was 1000 to 31600 nM.

For `CCc1c(C#N)c(SC(C(N)=O)c2ccccc2)nc(N2CCC(N3[C@H](C)CC[C@@H]3C)CC2)c1C#N` (stereo partly drawn) [Example 452, 2-((3,5-dicyano-6-(4-((2R,5S)-2,5-dimethylpyrrolidin-1-yl)piperidin-1-yl)-4-ethylpyridin-2-yl)thio)-2-phenylacetamide], the “DNMT1 BioChemical (pIC50 category)” value at DNMT1 (setting [2]) is recorded as “D (Category D: ≥6.5)”. For the same compound, the EC50 in assay [1] was less than 316 nM.

Regarding `CCc1c(C#N)c(SCc2ccc(CNC(=O)CC(C)C)cc2)nc(N2CCCN(C)CC2)c1C#N` [Example 89, N-(4-(((3,5-Dicyano-4-ethyl-6-(4-methyl-1,4-diazepan-1-yl)pyridin-2-yl)thio)methyl)benzyl)-3-methylbutanamide], the IC50 on DNMT1 (setting [3]) was 316 to 1000 nM. Besides, the EC50 in assay [1] was more than 31600 nM.

Consider `CCc1c(C#N)c(SC(C(N)=O)c2ncccc2F)nc(N2CCC(N)CC2)c1C#N` (stereo not drawn) [Example 583, 2-((6-(4-aminopiperidin-1-yl)-3,5-dicyano-4-ethylpyridin-2-yl)thio)-2-(3-fluoropyridin-2-yl)acetamide], for which the “DNMT1 BioChemical (pIC50 category)” value on DNMT1 (setting [2]) is on record as “D (Category D: ≥6.5)”. The EC50 in assay [1] was less than 316 nM.

In the case of `CCc1c(C#N)c(SC(C(N)=O)c2ccccc2)nc(N(C)C2CCN(C)C2)c1C#N` (stereo not drawn) [Example 699, 2-((3,5-dicyano-4-ethyl-6-(methyl(1-methylpyrrolidin-3-yl)amino)pyridin-2-yl)thio)-2-phenylacetamide], the IC50 at DNMT1 (setting [3]) was 316 to 1000 nM. For the same compound, in assay [1], the EC50 is 1000 to 31600 nM.

Regarding `CCc1c(C#N)c(SCc2ccc(CN)cc2)nc(N2CCC(N3CCCC3)CC2)c1C#N` [Example 68, 2-(4-(Aminomethyl)benzylthio)-4-ethyl-6-(4-(pyrrolidin-1-yl)piperidin-1-yl)pyridine-3,5-dicarbonitrile 2,2,2-trifluoroacetate], the IC50 on DNMT1 (setting [3]) was 316 to 1000 nM. Further, in assay [1], the EC50 was more than 31600 nM.

Turning to `CCc1c(C#N)c(SC(C(N)=O)c2ccccc2)nc(N2CCCN(C)CC2)c1C#N` (single isomer, unassigned; isomer 2) [Example 255, 2-((3,5-dicyano-4-ethyl-6-(4-methyl-1,4-diazepan-1-yl)pyridin-2-yl)thio)-2-phenylacetamide (Isomer 2)], at DNMT1 (setting [3]), the IC50 is 1000 to 31600 nM. In assay [1], the “EPC ELISA (pEC50 category)” value is given as “C (Category C: 6.0 ≤ x < 6.5)”.

Consider `CCc1c(C#N)c(SC(C(N)=O)c2ccccc2)nc(N2CCC(C3CCNC3)CC2)c1C#N` (stereo not drawn) [Example 121, 2-((3,5-Dicyano-4-ethyl-6-(4-(pyrrolidin-3-yl)piperidin-1-yl)pyridin-2-yl)thio)-2-phenylacetamide; 2,2,2-trifluoroacetic acid], for which the “DNMT1 BioChemical (pIC50 category)” value at DNMT1 (setting [2]) is “D (Category D: ≥6.5)”. Further, the “average pIC50 against DNMT1” value at DNMT1 (breaklight assay and/or SPA assay, repeated experimental runs) is more than 6.5. The EC50 in assay [1] was 316 to 1000 nM.

Consider `CCc1c(C#N)c(SC(C(N)=O)c2ccccc2)nc(N(C)CC(=O)N2C[C@@H](CO)[C@@H](O)C2)c1C#N` (stereo partly drawn) [Example 637, 2-((3,5-dicyano-4-ethyl-6-((2-((3R,4S)-3-hydroxy-4-(hydroxymethyl)pyrrolidin-1-yl)-2-oxoethyl)(methyl)amino)pyridin-2-yl)thio)-2-phenylacetamide], for which the “DNMT1 BioChemical (pIC50 category)” value on DNMT1 (setting [2]) is “D (Category D: ≥6.5)”. Also, the EC50 in assay [1] was 1000 to 31600 nM.

For the compound `CCc1c(C#N)c(SC(C(N)=O)c2ccccc2)nc(N2CCC(NC(=O)[C@@H](N)CO)CC2)c1C#N` (stereo partly drawn) [Example 399], the “DNMT1 BioChemical (pIC50 category)” value at DNMT1 (setting [2]) is “D (Category D: ≥6.5)”. Further, the EC50 in assay [1] is 1000 to 31600 nM.

As for `CCc1c(C#N)c(SC(C(N)=O)c2ccccc2)nc(N(C)CC(=O)N2C[C@@H](O)[C@@H](O)C2)c1C#N` (stereo partly drawn) [Example 647, 2-((3,5-dicyano-6-((2-((cis)-3,4-dihydroxypyrrolidin-1-yl)-2-oxoethyl)(methyl)amino)-4-ethylpyridin-2-yl)thio)-2-phenylacetamide], the “DNMT1 BioChemical (pIC50 category)” value on DNMT1 (setting [2]) is “D (Category D: ≥6.5)”. For the same compound, the EC50 in assay [1] is 316 to 1000 nM.

With `CCc1c(C#N)c(SCc2ccc(CN)cc2)nc(N(C)C)c1C#N` [Example 272, 2-((4-(Aminomethyl)benzyl)thio)-6-(dimethylamino)-4-ethylpyridine-3,5-dicarbonitrile, Hydrochloride], the IC50 at DNMT1 (setting [3]) is 1000 to 31600 nM. For the same compound, in assay [1], the EC50 was more than 31600 nM.

For the compound `CCc1c(C#N)c(N[C@@H](C(N)=O)c2ccccc2)nc(N2CCCN(CC)CC2)c1C#N` [Example 162, (R)-2-((3,5-Dicyano-4-ethyl-6-(4-ethyl-1,4-diazepan-1-yl)pyridin-2-yl)amino)-2-phenylacetamide], the IC50 on DNMT1 (setting [3]) was 1000 to 31600 nM. Also, in assay [1], the EC50 was 1000 to 31600 nM.

`CCc1c(C#N)c(SC(C(N)=O)c2ccccc2)nc(N2CCC[C@@H](NC)C2)c1C#N` (stereo partly drawn) [Example 636, 2-((3,5-dicyano-4-ethyl-6-((R)-3-(methylamino)piperidin-1-yl)pyridin-2-yl)thio)-2-phenylacetamide]: the “DNMT1 BioChemical (pIC50 category)” value at DNMT1 (setting [2]) was “D (Category D: ≥6.5)”. Also, the EC50 in assay [1] is less than 316 nM.

Consider `COc1c(C#N)c(SCc2ccc(N(C)S(C)(=O)=O)cc2)nc(N2CCC(N)CC2)c1C#N` [Example 683, N-(4-(((6-(4-aminopiperidin-1-yl)-3,5-dicyano-4-methoxypyridin-2-yl)thio)methyl)phenyl)-N-methylmethanesulfonamide hydrochloride], for which the “DNMT1 BioChemical (pIC50 category)” value on DNMT1 (setting [2]) is reported as “D (Category D: ≥6.5)”. For the same compound, the IC50 at DNMT1 (breaklight assay and/or SPA assay, repeated experimental runs, read-out: average pIC50 against DNMT1 (converted)) was 316 to 1000 nM and 316 nM. In addition, in assay [1], the EC50 was less than 316 nM.

Regarding `CCCS(=O)(=O)N1CCN(c2nc(SC(C(N)=O)c3ccccc3)c(C#N)c(CC)c2C#N)CC1` (stereo not drawn) [Example 158, 2-((3,5-Dicyano-4-ethyl-6-(4-(propylsulfonyl)piperazin-1-yl)pyridin-2-yl)thio)-2-phenylacetamide], the IC50 at DNMT1 (setting [3]) was 316 to 1000 nM. For the same compound, the EC50 in assay [1] is less than 316 nM.

As for `COc1c(C#N)c(SC(C(N)=O)c2ccccc2)nc(N2CCC(N)CC2)c1C#N` (stereo not drawn) [Example 693, 2-((6-(4-aminopiperidin-1-yl)-3,5-dicyano-4-methoxypyridin-2-yl)thio)-2-phenylacetamide 2,2,2-trifluoroacetate], the “DNMT1 BioChemical (pIC50 category)” value at DNMT1 (setting [2]) is “D (Category D: ≥6.5)”. In addition, the EC50 in assay [1] is less than 316 nM.

Regarding `CCc1c(C#N)c(SC(C(N)=O)c2ccccc2)nc(N2CCC(OCCOC(=O)[C@@H](N)C(C)C)CC2)c1C#N` (stereo partly drawn) [Example 153, (2S)-2-((1-(6-((2-Amino-2-oxo-1-phenylethyl)thio)-3,5-dicyano-4-ethylpyridin-2-yl)piperidin-4-yl)oxy)ethyl 2-amino-3-methylbutanoate], the “DNMT1 BioChemical (pIC50 category)” value on DNMT1 (setting [2]) is given as “D (Category D: ≥6.5)”. Further, in assay [1], the EC50 is 316 to 1000 nM.

Turning to `CCc1c(C#N)c(SC(C(N)=O)c2ccc(F)nc2)nc(N2CCCN(C)CC2)c1C#N` (stereo not drawn) [Example 228], the IC50 on DNMT1 (setting [3]) is 1000 to 31600 nM. In assay [1], the EC50 was 316 to 1000 nM.

For the compound `CCc1c(C#N)c(SC(C(N)=O)c2ccccc2)nc(N2CCOC(CN(CC)CC)C2)c1C#N` (stereo not drawn) [Example 559, 2-((3,5-dicyano-6-(2-((diethylamino)methyl)morpholino)-4-ethylpyridin-2-yl)thio)-2-phenylacetamide], the “DNMT1 BioChemical (pIC50 category)” value on DNMT1 (setting [2]) is recorded as “D (Category D: ≥6.5)”. The EC50 in assay [1] was less than 316 nM.

On to `CCc1c(C#N)c(SC(C(N)=O)c2ccccc2)nc(N2CCC(N3C(=O)COC3=O)CC2)c1C#N` (stereo not drawn) [Example 260, 2-((3,5-Dicyano-6-(4-(2,4-dioxooxazolidin-3-yl)piperidin-1-yl)-4-ethylpyridin-2-yl)thio)-2-phenylacetamide], for which the IC50 at DNMT1 (setting [3]) was 316 to 1000 nM. Also, the EC50 in assay [1] is 1000 to 31600 nM.

Take `N#Cc1c(SC(C(N)=O)c2ccccc2)nc(N2CCC[C@@H](O)C2)c(C#N)c1C1CC1` (stereo partly drawn) [Example 32, 2-((3,5-dicyano-4-cyclopropyl-6-((R)-3-hydroxypiperidin-1-yl)pyridin-2-yl)thio)-2-phenylacetamide]: the “DNMT1 BioChemical (pIC50 category)” value on DNMT1 (setting [2]) is “D (Category D: ≥6.5)”. In addition, the EC50 in assay [1] is 1000 to 31600 nM.

Regarding `N#Cc1c(SC(C(N)=O)c2ccccc2)nc(N2CCC[C@H](O)C2)c(C#N)c1C1CC1` (stereo partly drawn) [Example 33, 2-(3,5-dicyano-4-cyclopropyl-6-((S)-3-hydroxypiperidin-1-yl)pyridin-2-ylthio)-2-phenylacetamide], on DNMT1 (setting [3]), the IC50 is 316 to 1000 nM. Further, the EC50 in assay [1] was 316 to 1000 nM.

For the compound `CCc1c(C#N)c(SC(C(N)=O)c2ccc(F)cc2)nc(N2CC[C@@H](N(C)C)C2)c1C#N` (stereo partly drawn) [Example 530, 2-((3,5-dicyano-6-((R)-3-(dimethylamino)pyrrolidin-1-yl)-4-ethylpyridin-2-yl)thio)-2-(4-fluorophenyl)acetamide], the “DNMT1 BioChemical (pIC50 category)” value at DNMT1 (setting [2]) is on record as “D (Category D: ≥6.5)”. For the same compound, in assay [1], the EC50 was 1000 to 31600 nM.

The values are drawn from US10975056B2 (GlaxoSmithKline Intellectual Property Development Limited, priority 2016, dated 2021).
